Source: the Kinase Knowledgebase extract (Sharma et al. 2016)

These compounds were tested against EGFR (human) (UniProt P00533) (assay: not given). Conditions: not given.
Sequence of EGFR (human) (P00533 whole entry, looked up): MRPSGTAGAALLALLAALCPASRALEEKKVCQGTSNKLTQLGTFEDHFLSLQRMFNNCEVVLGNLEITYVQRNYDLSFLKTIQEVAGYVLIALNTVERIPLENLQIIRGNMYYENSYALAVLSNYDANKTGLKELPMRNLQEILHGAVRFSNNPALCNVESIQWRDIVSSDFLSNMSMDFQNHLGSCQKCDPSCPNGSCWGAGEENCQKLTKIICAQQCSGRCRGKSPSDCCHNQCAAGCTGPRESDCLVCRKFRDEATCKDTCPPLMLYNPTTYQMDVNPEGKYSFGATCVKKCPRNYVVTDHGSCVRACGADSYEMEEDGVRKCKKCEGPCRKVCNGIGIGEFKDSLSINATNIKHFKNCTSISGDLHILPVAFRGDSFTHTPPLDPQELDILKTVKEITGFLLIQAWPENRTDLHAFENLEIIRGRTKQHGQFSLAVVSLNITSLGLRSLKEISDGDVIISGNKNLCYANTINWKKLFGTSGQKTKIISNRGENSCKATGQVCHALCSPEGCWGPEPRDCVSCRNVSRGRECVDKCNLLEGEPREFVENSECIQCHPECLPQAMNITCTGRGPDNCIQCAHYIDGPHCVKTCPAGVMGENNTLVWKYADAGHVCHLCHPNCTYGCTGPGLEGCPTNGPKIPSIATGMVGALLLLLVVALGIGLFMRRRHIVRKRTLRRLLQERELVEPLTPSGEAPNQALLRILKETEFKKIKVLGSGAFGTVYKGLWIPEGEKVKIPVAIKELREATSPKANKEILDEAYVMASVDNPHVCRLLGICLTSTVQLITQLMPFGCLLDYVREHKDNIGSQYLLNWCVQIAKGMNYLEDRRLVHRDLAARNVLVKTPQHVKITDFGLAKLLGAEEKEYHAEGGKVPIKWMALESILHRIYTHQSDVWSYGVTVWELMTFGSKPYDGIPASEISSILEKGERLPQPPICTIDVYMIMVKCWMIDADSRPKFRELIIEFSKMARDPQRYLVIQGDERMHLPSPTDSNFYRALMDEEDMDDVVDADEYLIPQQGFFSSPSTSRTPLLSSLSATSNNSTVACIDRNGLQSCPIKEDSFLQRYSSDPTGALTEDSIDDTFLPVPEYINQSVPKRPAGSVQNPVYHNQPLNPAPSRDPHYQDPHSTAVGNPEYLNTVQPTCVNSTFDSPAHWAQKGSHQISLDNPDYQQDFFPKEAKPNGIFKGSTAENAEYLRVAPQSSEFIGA

Row | IC50 [nM] | SMILES
1 | > 100000 | CCN(CC)Cc1cc(NC(=O)/C(=C2/C(=O)Nc3ccccc32)c2[nH]c(C)cc2C)ccc1O
2 | > 100000 | Cc1cc(C)c(/C(C(=O)Nc2cccc(F)c2)=C2\C(=O)Nc3ccccc32)[nH]1
3 | > 100000 | CCN(CC)CCNC(=O)/C(=C1/C(=O)Nc2ccccc21)c1[nH]c(C)cc1C
4 | > 100000 | Cc1cc(C)c(/C(C(=O)Nc2ccc(F)c(Cl)c2)=C2\C(=O)Nc3ccccc32)[nH]1
5 | > 100000 | O=C(O)/C(=C1/C(=O)Nc2ccccc21)c1ccccc1
6 | > 100000 | Cc1cc(C)c(/C(C(=O)Nc2cccc(N(C)C)c2)=C2\C(=O)Nc3ccccc32)[nH]1
7 | > 100000 | Cc1cc(C)c(/C(C(=O)Nc2ccccc2Cl)=C2\C(=O)Nc3ccccc32)[nH]1
8 | > 100000 | Cc1cc(C)c(/C(C(=O)O)=C2\C(=O)Nc3ccccc32)[nH]1

Target: EGFR (human) (UniProt P00533)
Test: not given
Conditions: not given
Remark: another data set of the same source

Row | SMILES | IC50 [nM]
9 | c1ccc(Nc2ncnc3sc4c(c23)CCCC4)cc1 | 10.5
10 | O=[N+]([O-])c1cccc(Nc2ncnc3sc4c(c23)CCCC4)c1 | 2.59
11 | FC(F)(F)c1cccc(Nc2ncnc3sc4c(c23)CCCC4)c1 | 35.5

Next, values leading:

Row | IC50 [nM] | SMILES
12 | 50.3 | Brc1ccc(Nc2ncnc3sc4c(c23)CCCC4)cc1
13 | 27.4 | Oc1ccc(Nc2ncnc3sc4c(c23)CCCC4)cc1
14 | 1.97 | Clc1cccc(Nc2ncnc3sc4c(c23)CCCC4)c1
15 | 34 | COc1cccc(Nc2ncnc3sc4c(c23)CCCC4)c1
16 | 7.89 | Oc1cccc(Nc2ncnc3sc4c(c23)CCCC4)c1

Each compound was assayed against PIK3CD (Human) (UniProt O00329) (assay: Enzyme Assay). Conditions: not given.
Sequence of PIK3CD (Human) (O00329 whole entry, looked up): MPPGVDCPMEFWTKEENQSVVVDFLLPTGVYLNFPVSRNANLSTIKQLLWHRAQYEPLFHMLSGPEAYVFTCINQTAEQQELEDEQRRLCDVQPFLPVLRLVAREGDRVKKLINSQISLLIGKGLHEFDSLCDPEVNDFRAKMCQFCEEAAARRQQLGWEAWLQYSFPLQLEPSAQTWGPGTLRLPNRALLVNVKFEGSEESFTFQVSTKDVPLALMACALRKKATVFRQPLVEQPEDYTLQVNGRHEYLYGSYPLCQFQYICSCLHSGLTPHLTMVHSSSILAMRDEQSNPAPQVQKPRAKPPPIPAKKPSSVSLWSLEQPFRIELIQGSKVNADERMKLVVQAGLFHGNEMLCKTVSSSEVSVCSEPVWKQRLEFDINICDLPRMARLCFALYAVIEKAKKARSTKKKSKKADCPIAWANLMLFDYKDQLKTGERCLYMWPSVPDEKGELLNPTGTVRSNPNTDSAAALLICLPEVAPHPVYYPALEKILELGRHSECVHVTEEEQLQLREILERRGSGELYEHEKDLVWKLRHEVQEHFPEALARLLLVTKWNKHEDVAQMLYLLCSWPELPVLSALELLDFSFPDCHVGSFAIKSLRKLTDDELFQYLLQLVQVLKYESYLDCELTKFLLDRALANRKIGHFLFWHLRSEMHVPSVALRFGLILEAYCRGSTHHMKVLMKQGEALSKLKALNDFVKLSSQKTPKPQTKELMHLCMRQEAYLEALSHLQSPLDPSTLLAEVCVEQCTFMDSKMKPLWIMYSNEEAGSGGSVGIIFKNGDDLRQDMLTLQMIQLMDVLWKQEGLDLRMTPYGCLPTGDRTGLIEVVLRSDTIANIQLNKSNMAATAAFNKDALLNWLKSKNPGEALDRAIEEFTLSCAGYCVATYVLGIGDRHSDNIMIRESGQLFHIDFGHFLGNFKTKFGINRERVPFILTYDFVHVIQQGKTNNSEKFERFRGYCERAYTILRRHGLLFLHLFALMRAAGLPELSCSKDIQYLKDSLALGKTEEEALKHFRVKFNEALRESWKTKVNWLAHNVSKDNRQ

Row | IC50 [nM] | SMILES
17 | 2 | CCN1CCN(c2cccc3c2CCN3C(=O)Cc2nc(N3CCOCC3)cc(=O)[nH]2)CC1
18 | 15 | O=C(c1nn([C@@H]2CCCN(CCN3CCOCC3)C2)c2c1CS(=O)(=O)c1c(F)cccc1-2)N1CCOCC1
19 | 3 | C[C@H](Nc1ncnc2ccc(Cl)nc12)c1nc2c(F)ccc(Cl)c2c(=O)n1N1CCNCC1

Each compound was assayed against CDK2 (UniProt P24941) (assay: Enzyme Assay). Conditions: not given.

Row | SMILES | IC50 [nM] | Ki [nM]
20 | N[C@H](COc1cncc(-c2cc3cn[nH]c3cn2)c1)Cc1c[nH]c2ccccc12 | 6 | 
21 | N[C@H](COc1cncc(-c2ccc3[nH]ncc3c2)c1)Cc1c[nH]c2ccccc12 | 63 | 42

The compounds below were run against PIK3CA (human) (UniProt P42336) (assay: Enzyme Assay). Conditions: not given.
Sequence of PIK3CA (human) (P42336 whole entry, looked up): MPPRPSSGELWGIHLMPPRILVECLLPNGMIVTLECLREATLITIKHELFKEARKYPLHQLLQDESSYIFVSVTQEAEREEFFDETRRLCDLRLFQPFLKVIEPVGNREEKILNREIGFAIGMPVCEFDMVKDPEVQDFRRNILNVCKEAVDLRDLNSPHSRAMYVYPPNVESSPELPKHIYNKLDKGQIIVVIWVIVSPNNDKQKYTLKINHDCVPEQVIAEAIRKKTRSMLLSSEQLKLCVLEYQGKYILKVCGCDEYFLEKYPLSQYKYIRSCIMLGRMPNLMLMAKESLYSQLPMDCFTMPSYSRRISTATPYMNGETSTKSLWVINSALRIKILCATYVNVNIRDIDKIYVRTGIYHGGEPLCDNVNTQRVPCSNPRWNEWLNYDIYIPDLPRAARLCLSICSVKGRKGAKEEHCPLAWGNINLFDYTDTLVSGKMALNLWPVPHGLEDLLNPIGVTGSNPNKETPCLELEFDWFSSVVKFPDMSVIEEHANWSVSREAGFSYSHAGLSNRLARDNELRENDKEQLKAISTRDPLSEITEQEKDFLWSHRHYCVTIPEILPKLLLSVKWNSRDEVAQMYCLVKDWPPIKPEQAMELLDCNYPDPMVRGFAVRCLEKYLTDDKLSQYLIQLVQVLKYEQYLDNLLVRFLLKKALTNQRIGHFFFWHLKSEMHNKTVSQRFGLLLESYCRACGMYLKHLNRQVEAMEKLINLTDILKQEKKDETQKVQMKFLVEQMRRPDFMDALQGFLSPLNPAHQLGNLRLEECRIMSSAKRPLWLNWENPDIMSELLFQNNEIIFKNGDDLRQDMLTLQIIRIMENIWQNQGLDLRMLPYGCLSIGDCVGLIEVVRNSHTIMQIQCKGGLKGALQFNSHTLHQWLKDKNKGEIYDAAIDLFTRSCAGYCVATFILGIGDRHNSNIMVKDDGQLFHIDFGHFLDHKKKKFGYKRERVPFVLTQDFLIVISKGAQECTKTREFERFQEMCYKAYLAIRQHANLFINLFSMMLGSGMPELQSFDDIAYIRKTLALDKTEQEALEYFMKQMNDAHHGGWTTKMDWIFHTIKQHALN

Row | IC50 [nM] | SMILES
22 | 142000 | O=c1cc(NCc2ccccc2)nc(N2CCOCC2)[nH]1
23 | 3500 | C[C@@H](Oc1ccccc1)c1cc(C(=O)N(C)CCO)cn2c(=O)cc(N3CCOCC3)nc12
24 | 660 | CCN1CCN(c2cccc3c2CCN3C(=O)Cc2nc(N3CCOCC3)cc(=O)[nH]2)CC1
25 | 7650 | O=C(c1nn([C@@H]2CCCN(CCN3CCOCC3)C2)c2c1CS(=O)(=O)c1c(F)cccc1-2)N1CCOCC1

Each compound was assayed against PIK3CB (Human) (UniProt P42338) (assay: Enzyme Assay). Conditions: not given.
Sequence of PIK3CB (Human) (P42338 whole entry, looked up): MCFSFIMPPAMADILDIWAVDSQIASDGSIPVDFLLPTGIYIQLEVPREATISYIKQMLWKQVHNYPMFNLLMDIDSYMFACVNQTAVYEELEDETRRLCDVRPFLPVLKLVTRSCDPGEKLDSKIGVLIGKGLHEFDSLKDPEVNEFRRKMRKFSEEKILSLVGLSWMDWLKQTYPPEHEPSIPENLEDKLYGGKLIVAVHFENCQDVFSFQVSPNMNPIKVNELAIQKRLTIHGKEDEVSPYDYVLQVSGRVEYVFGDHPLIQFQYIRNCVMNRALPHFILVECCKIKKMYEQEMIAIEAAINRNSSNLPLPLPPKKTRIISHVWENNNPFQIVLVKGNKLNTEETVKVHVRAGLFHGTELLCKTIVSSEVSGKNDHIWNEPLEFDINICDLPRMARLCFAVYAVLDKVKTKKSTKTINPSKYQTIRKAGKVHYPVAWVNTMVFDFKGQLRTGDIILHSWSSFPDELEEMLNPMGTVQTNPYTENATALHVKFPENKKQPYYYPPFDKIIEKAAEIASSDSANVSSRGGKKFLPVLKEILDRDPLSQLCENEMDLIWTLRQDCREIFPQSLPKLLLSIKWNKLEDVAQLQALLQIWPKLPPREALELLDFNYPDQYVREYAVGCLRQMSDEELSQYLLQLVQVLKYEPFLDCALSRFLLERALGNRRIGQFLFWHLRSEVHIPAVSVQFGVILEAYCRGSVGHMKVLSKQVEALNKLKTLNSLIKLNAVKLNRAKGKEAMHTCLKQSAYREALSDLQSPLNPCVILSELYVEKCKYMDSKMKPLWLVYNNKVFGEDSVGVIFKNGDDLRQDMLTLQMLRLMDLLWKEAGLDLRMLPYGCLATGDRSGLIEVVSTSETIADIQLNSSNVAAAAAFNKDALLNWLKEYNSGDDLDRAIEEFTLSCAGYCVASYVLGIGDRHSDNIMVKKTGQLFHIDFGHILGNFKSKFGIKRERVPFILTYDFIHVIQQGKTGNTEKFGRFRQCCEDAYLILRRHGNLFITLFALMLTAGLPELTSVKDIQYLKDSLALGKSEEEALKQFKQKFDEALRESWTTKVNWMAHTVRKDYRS

Row | SMILES | IC50 [nM]
26 | O=c1cc(NCc2ccccc2)nc(N2CCOCC2)[nH]1 | 34000
27 | C[C@@H](Oc1ccccc1)c1cc(C(=O)N(C)CCO)cn2c(=O)cc(N3CCOCC3)nc12 | 100
28 | CCN1CCN(c2cccc3c2CCN3C(=O)Cc2nc(N3CCOCC3)cc(=O)[nH]2)CC1 | 332
29 | O=C(c1nn([C@@H]2CCCN(CCN3CCOCC3)C2)c2c1CS(=O)(=O)c1c(F)cccc1-2)N1CCOCC1 | 2450

Results, then the compound that gave them:

Row | IC50 [nM] | SMILES
30 | 359 | CC[C@H](Nc1ncnc(N)c1-c1nnc(C)o1)c1cc2cccc(Cl)c2c(=O)n1-c1ccccc1
31 | 8 | C[C@H](Nc1ncnc2ccc(Cl)nc12)c1nc2c(F)ccc(Cl)c2c(=O)n1N1CCNCC1

The compounds below were run against PIK3CG (human) (UniProt P48736) (assay: Enzyme Assay). Conditions: not given.

Row | IC50 [nM] | SMILES
32 | 10000 | CCN1CCN(c2cccc3c2CCN3C(=O)Cc2nc(N3CCOCC3)cc(=O)[nH]2)CC1
33 | 3100 | C[C@H](Nc1ncnc2ccc(Cl)nc12)c1nc2c(F)ccc(Cl)c2c(=O)n1N1CCNCC1

Each compound was assayed against EGFR (human) (UniProt P00533) (assay: not given). Conditions: a431.

Row | IC50 [nM] | SMILES
34 | 32 | C=CC(=O)N1CCC[C@H]1C(=O)Nc1ccc2ncnc(Nc3ccc(OCc4ccccn4)c(Cl)c3)c2c1
35 | 1400 | C=CC(=O)N1CC(C(=O)Nc2ccc3ncnc(Nc4ccc(OCc5ccccn5)c(Cl)c4)c3c2)C1
36 | 513 | C=CC(=O)N1CCC(C(=O)Nc2ccc3ncnc(Nc4ccc(OCc5ccccn5)c(Cl)c4)c3c2)CC1
37 | 218 | C=CC(=O)N1CC[C@H]1C(=O)Nc1ccc2ncnc(Nc3ccc(OCc4ccccn4)c(Cl)c3)c2c1
38 | 105 | C=CC(=O)N1CCCC[C@H]1C(=O)Nc1ccc2ncnc(Nc3ccc(OCc4ccccn4)c(Cl)c3)c2c1
39 | 350 | C=CC(=O)N1CC[C@H](C(=O)Nc2ccc3ncnc(Nc4ccc(OCc5ccccn5)c(Cl)c4)c3c2)C1
40 | 286 | C=CC(=O)N1CCC[C@H](C(=O)Nc2ccc3ncnc(Nc4ccc(OCc5ccccn5)c(Cl)c4)c3c2)C1
41 | 567 | C=CC(=O)N1CCC[C@@H]1C(=O)Nc1ccc2ncnc(Nc3ccc(OCc4ccccn4)c(Cl)c3)c2c1

Target: EGFR (human) (UniProt P00533)
Test: not given
Conditions: not given
Remark: another data set of the same source

Row | IC50 [nM] | SMILES
42 | 346 | CC(C)(C)OC(=O)NCCCNC(=O)c1sc2ncnc3c2c1NC(=O)N3c1ccc2c(ccn2Cc2cccc(F)c2)c1
43 | 23 | O=C(Nc1ccc(CN2CCOCC2)cc1)c1sc2ncnc3c2c1NC(=O)N3c1ccc(F)cc1Cl
44 | 31 | C[C@@H]1CN(Cc2ccc(NC(=O)c3sc4ncnc5c4c3NC(=O)N5c3ccc(Oc4ccccc4)cc3)cc2)C[C@H](C)O1
